The values below come from patent US8048870B2, “Apoptosis-inducing antineoplastic silver (I) coordination complexes” (priority 2005, dated 2011).

One series relates to T-47D cells. Nature of the series: DeadEnd Colorimetric TUNEL assay for in-situ apoptosis, T-47D. The series is classed as cell-based, human. To be noted: 18 hours of incubation. The procedure: (§1) Detection of in-situ apoptosis was performed by the DeadEnd Colorimetric TUNEL (terminal deoxynucleotidyltransferase nick end labeling) assay for the detection of apoptosis in cultured cells as described in Promega kit (Promega Corporation-2800 Woods Hollow Road, Madison, Wis. 53711-5399, USA). Briefly, control and apoptosis-induced cells were centrifuged, washed with PBS, and were fixed on glass slides coated with poly-L-lysine (Sigma-Aldrich). The cells were fixed by immersing the slides in 10% buffered formalin, 4% paraformaldehyde solution for 25 minutes at room temperature. The fixed cells were then washed twice with fresh PBS for 5 minutes at room temperature. The cells were permeabilized by immersing the slides in 0.2% Triton® X-100 solution in PBS for 5 minutes at room temperature. The slides were then rinsed twice with PBS for 5 minutes each at room temperature. The excess liquid was then removed by tapping the slides, and the cells were covered with 100 μL of Equilibration Buffer, and the slides were equilibrated for 8 minutes at room temperature. Then, 100 μL of rTdT reaction mix were added and blotted around the equilibrated areas. The slides were then incubated at 37° C. for an hour inside a humidifier. Then, the reactions were terminated, the slides were washed and 0.3% hydrogen peroxide, and other reagents and washing steps were conducted according to the manufacturer's instructions. The slides were then observed under a light microscope for apoptotic staining. For comparative purposes, apoptotic studies were also performed on cisplatin. […]
(§2) To examine the mode of inherent chemotherapeutic activities of silver (I) complexes, apoptosis was detected by the TUNEL assay for each cell line studies for Phases I, II and III identified above. […] The 18 and 6-hour incubation periods were chosen because it was determined in previous experiments of this work that induction of apoptosis of silver (I) complex was within these times for these two cell lines.

For a further series, the system named is Jurkat cells. Description: DeadEnd Colorimetric TUNEL assay for in-situ apoptosis, Jurkat. The series is classed as cell-based, human. To be noted: 6 hours of incubation. The protocol: as §1, §2
Series [1] deals with T-47D human breast carcinoma. Description: Cytotoxicity (% inhibition), trypan blue dye exclusion viable cell count, T-47D. The series is classed as cell-based. The procedure:
The chemotherapeutic activities of the silver (I) coordination complex were determined on T-47D human breast carcinoma and Jurkat T-cell acute lymphoblastic leukemia, and compared with cisplatin (Pt(NH3)2Cl2) at 385 μg/mL, corresponding to 250 μg/mL platinum, which is the same concentration used for Ag for the experiments described in Examples 1 and 2, below. The two tumor cell lines were chosen very carefully so as to include solid (T-47D) and disseminated (Jurkat) neoplasia. Cells are plated in a 96-well flat bottom tissue culture plates at 50,000 cells/well. The experiments were conducted by serial dilution.
All cell lines were grown and tested in complete RPMI-1640 medium supplemented with 10% FBS, 40 μg/mL GEN, HEPES buffer of pH=7.2, 2 mM L-glutamine and sodium pyruvate. Plates were incubated in 5% CO2 at 37° C. in a humidified incubator for 24 hrs. Human tumor cells were maintained in the log phase by routine passaging every 2-3 days.
To assess % inhibition of tumor cells, the number of viable cells were counted by trypan blue dye exclusion method on a hemocytometer by microscopy, and adjusted for concentration of cells/mL. Briefly, each well was plated and washed with PBS twice and then harvested with 0.5 mL of Trypsin/EDTA. Cells were diluted with 1 ml of culture media and stained with trypan blue dye.
To examine if there was any interaction between culture medium and test reagents, the test culture was also inoculated with the present reagents without the presence of any of the drugs. […] All experiments were done in triplicates, and the results are averaged and reported.
Regression models were applied to the data to assess the correlation between % inhibition and concentration. Multiple curve estimation procedure was employed, and the relative fit for each model was determined on the basis of the values of the correlation coefficient, r^2; the fit that gives r^2 values closer to 1.0 was selected. The regression equations were then integrated over the concentration intervals for each phase, and their sum was taken as the AUCt>24.

The conditions of series [2]: patients, i.v. injections; cited from earlier work.

For the compound `N.N.[Cl][Pt][Cl]` [CIS-Pt, cis-diaminedichloroplatinum (II)], the “apoptotic staining (TUNEL)” value in the series with T-47D cells (0.0076 μg/mL (Phase I)) is listed as “absent”; in the series with T-47D cells (3.906 μg/mL (Phase II)), “evident”; with T-47D cells (15.625 μg/mL (Phase III)), “evident”; in the series with Jurkat cells (0.0076 μg/mL (Phase I)), “evident”; in the series with Jurkat cells (3.906 μg/mL (Phase II)), “evident”; with Jurkat cells (15.625 μg/mL (Phase III)), “evident”. In addition, the “calculated AUCt>24” value is listed as 0.0 cfu·μg/mL in series [1] (Phase I), 2.05 cfu·μg/mL in series [1] (Phase II) and 107 cfu·μg/mL in series [1] (Phase III). The compound further displayed an average % inhibition in series [1] (range of 0.0019-0.0152 μg/mL metal) of 0%.
Take silver arsphenamine: the “LOAEL (lowest-observed-adverse-effect level) for argyria” value in series [2] is 0.014 mg/kg/day.
